These results are taken from patent US20260234157A1, “COMPOUND AND METHOD FOR TARGETED DEGRADATION OF ANDROGEN RECEPTOR” (Gan & Lee Pharmaceuticals Co., Ltd., priority 2023, published 2026).

Holding throughout (format): cell-based
Test [1] relates to LNCaP FGC cells. Kind of test: Inhibition of proliferation of LNCaP cells (WST-8). The note with it: Homo sapiens, LNCaP, 96 h, LNCaP FGC cells, 96 hours, WST-8 absorbance at 450 nm; read-out: IC50 for inhibiting the proliferation of LNCaP cells. As to the method:
The cells were cultured in a cell culture incubator with 5% CO2 at 37° C. overnight. […] On the sixth day, 96 well plates were taken out, and 20 μL of WST-8 (Beytime, C0040) reagent was added to each well.

In test [2] the test system is VCaP cells. Kind of test: Inhibition of proliferation of VCaP cells (WST-8). The settings on record: Homo sapiens; VCaP cells, 168 hours, WST-8 absorbance at 450 nm; read-out: IC50 for inhibiting the proliferation of VCaP cells. Put shortly:
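Proliferation was read by WST-8 on day nine. Cells were VCaP FGC, seeded at 15000 cells per well in 10% FBS DMEM and kept at 37° C with 5% CO2.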

The target of test [3] is T1, AR protein (Homo sapiens, UniProt P10275).
T1 construct: degradation activity of the compounds disclosed in the present disclosure on AR protein in VCaP cells; host or cells: VCaP
T1 sequence (P10275 1-920): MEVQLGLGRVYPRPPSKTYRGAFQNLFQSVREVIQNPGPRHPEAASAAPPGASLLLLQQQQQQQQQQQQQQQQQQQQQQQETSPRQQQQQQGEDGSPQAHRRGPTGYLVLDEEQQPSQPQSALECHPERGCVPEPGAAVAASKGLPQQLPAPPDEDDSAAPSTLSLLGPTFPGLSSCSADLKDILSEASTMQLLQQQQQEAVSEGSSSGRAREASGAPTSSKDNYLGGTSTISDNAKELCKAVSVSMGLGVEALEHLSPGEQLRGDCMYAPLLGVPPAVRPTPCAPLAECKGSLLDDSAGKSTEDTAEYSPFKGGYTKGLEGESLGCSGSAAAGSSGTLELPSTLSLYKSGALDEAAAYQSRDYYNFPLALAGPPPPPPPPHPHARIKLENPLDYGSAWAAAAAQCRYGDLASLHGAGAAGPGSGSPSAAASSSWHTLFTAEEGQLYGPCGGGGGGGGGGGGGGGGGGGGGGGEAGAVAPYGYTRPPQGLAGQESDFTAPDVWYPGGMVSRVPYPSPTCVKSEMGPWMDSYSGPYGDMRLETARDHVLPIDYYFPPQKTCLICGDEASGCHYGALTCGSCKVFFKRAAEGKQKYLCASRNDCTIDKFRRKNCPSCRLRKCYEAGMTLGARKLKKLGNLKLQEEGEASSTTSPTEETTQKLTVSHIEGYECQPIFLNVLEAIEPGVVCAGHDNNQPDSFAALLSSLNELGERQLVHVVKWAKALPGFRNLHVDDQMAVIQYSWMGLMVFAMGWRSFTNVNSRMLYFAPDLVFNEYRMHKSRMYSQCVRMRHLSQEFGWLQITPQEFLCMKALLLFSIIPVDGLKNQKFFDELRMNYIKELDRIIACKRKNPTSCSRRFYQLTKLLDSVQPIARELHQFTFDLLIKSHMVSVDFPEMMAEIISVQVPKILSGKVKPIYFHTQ
Kind of test: Degradation of AR protein in VCaP cells (Western blot). The settings on record: 8 hours; for inhibition at 0.01 µM: compound at 10 nM, read-out: Degradation rate of the AR protein in VCaP cells, 10 nM (%); for inhibition at 0.1 µM: compound at 100 nM, read-out: Degradation rate of the AR protein in VCaP cells, 100 nM (%). The gist of the method: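 Western blot readout: AR band grayscale normalised to GAPDH, used to derive degradation rate. Lysates came from VCaP cells exposed to compound for 8 h, with solvent controls run in parallel.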
On the technique in general: A western blot detects proteins with antibodies after separation by electrophoresis.

The target in test [4] is T2, AR protein (Homo sapiens, UniProt P10275, T878A).
T2 construct: degradation activity of the compounds disclosed in the present disclosure on AR protein in LNCaP cells; host or cells: LNCaP FGC
T2 sequence (P10275 1-920 T878A): T1 sequence (P10275 1-920) with T878A
Kind of test: Degradation of AR protein in LNCaP cells (Western blot). The settings on record: LNCaP cells, 8 hours, Western blot grayscale, GAPDH internal reference; for inhibition at 0.01 µM: compound 10 nM, read-out: Degradation rates of the AR protein in LNCaP cells, 10 nM (%); for inhibition at 0.1 µM: compound 100 nM, read-out: Degradation rates of the AR protein in LNCaP cells, 100 nM (%). The gist of the method:
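Percent AR degradation was derived from GAPDH-normalised Western blot band intensities (infrared detection) in LNCaP lysates.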

Positions count from the first letter of the chain named.

With `COc1cc(O[C@H]2C(C)(C)[C@H](NC(=O)c3ccc(N4CCC(C#N)(CN5CCC6(CC5)COc5c6ccc6c5C(=O)N(C5CCC(=O)NC5=O)C6=O)CC4)cc3)C2(C)C)ccc1C#N` (stereo partly drawn) [Compound 207], the IC50 in test [1] was 0.87 µM; in test [2], 0.038 µM. The inhibition at 0.01 µM was -46% in test [3] and 28% in test [4]. Moreover, the values for the inhibition at 0.1 µM in test [3] and in test [4] were 37% and 40%, respectively.

For the compound `CC1(C)[C@H](NC(=O)c2ccc(N3CCC(F)(CN4CCC5(CC4)COc4c5ccc5c4CN(C4CCC(=O)NC4=O)C5=O)CC3)nn2)C(C)(C)[C@H]1Oc1ccc(C#N)c(C(F)(F)F)c1` (stereo partly drawn) [Compound 237], the IC50 came out at 0.051 µM in test [1] and 0.0045 µM in test [2]. Besides, the inhibition at 0.01 µM in test [3] was -46%; in test [4], 6%. The inhibition at 0.1 µM amounted to 23% in test [3] and 39% in test [4].

Take `N#Cc1ccc(O[C@H]2CC[C@H](NC(=O)c3ccc(N4CCC5(CCC(N6CCC7(CCc8ccc9c(c8O7)CN(C7CCC(=O)NC7=O)C9=O)CC6)CC5)CC4)nn3)CC2)cc1Cl` (stereo partly drawn) [Compound 150]: the IC50 in test [1] came to 3.13 µM; in test [2], 3.34 µM. For the same compound, the inhibition at 0.01 µM in test [3] was found to be 65%; in test [4], 52%. Besides, the results for the inhibition at 0.1 µM in test [3] and in test [4] were 86% and 35%, respectively.

Turning to `N#Cc1ccc(O[C@H]2CC[C@H](NC(=O)c3ccc(N4CCC5(CC(N6CCC7(CCc8cc9c(cc8O7)C(=O)N(C7CCC(=O)NC7=O)C9=O)CC6)C5)C4)nn3)CC2)cc1Cl` (stereo partly drawn) [Compound 35], the values for the IC50 in test [1] and in test [2] were 0.8 µM and 0.5 µM, respectively. For the same compound, the inhibition at 0.01 µM in test [3] came out at 47%; in test [4], 17%. For the same compound, the inhibition at 0.1 µM in test [3] is 58%; in test [4], 50%.

For `N#Cc1ccc(O[C@H]2CC[C@H](NC(=O)c3ccc(N4CCC5(CCC(N6CCC7(CCc8cc9c(cc8O7)C(=O)N(C7CCC(=O)NC7=O)C9=O)CC6)CC5)C4)nn3)CC2)cc1Cl` (stereo partly drawn) [Compound 34], the IC50 came to 1.12 µM in test [1] and 4.2 µM in test [2]. In addition, the inhibition at 0.01 µM was determined as 39% in test [3] and 57% in test [4]. Further, the inhibition at 0.1 µM stood at 51% in test [3] and 70% in test [4].

Consider `CCC1(CN2CCC3(CC2)COc2c3ccc3c2C(=O)N(C2CCC(=O)NC2=O)C3=O)CCN(c2ccc(C(=O)N[C@H]3CC[C@H](Oc4ccc(C#N)c(Cl)c4)CC3)nn2)CC1` (stereo partly drawn) [Compound 249], for which the IC50 is 12.1 µM in test [1] and 0.22 µM in test [2]. For the same compound, the inhibition at 0.01 µM in test [3] is -21%; in test [4] it was -5%. The inhibition at 0.1 µM in test [3] turned out to be 56%; in test [4], 51%.

With `COc1cc(O[C@H]2C(C)(C)[C@H](NC(=O)c3ccc(N4CCC(F)(CN5CCC6(CCc7cc8c(cc7O6)C(=O)N(C6CCC(=O)NC6=O)C8=O)CC5)CC4)cc3)C2(C)C)ccc1C#N` (stereo partly drawn) [Compound 270], the IC50 in test [1] turned out to be 72 µM; in test [2], 0.11 µM. In addition, the inhibition at 0.01 µM in test [3] was 9%; in test [4], 47%. Further, the inhibition at 0.1 µM is 28% in test [3] and 40% in test [4].

As for `N#Cc1ccc(O[C@H]2CC[C@H](NC(=O)c3ccc(N4CCC(F)(CN5CCC6(CC5)COc5c6ccc6c5CN(C5CCC(=O)NC5=O)C6=O)CC4)cn3)CC2)cc1Cl` (stereo partly drawn) [Compound 260], the values for the IC50 in test [1] and in test [2] were 0.004 µM and 0.001 µM, respectively. Further, the inhibition at 0.01 µM came to 15% in test [3] and 13% in test [4]. Besides, the inhibition at 0.1 µM turned out to be 74% in test [3] and 9% in test [4].

Regarding `CCC1(CN2CCC3(CC2)COc2c3ccc3c2CN(C2CCC(=O)NC2=O)C3=O)CCN(c2ccc(C(=O)N[C@H]3CC[C@H](Oc4ccc(C#N)c(Cl)c4)CC3)nn2)CC1` (stereo partly drawn) [Compound 236], the IC50 in test [1] came out at 0.022 µM; in test [2], 0.001 µM. For the same compound, the inhibition at 0.01 µM in test [3] was 37%; in test [4] it was 44%. For the same compound, the values for the inhibition at 0.1 µM in test [3] and in test [4] were 82% and 60%, respectively.
